In article PMC11290853, “Cholesterol-dependent dynamic changes in the conformation of the type 1 cholecystokinin receptor affect ligand binding and G protein coupling” (PLOS Biology, 2024):
Numbering of substitutions follows the chain as printed.

Experiments:
[1] = molecular target: T1, CCK1R(Y140A) (Homo sapiens, UniProt P32238, Y140A); assay: fluorescence polarization kinetic assay, CCK1R(Y140A); type: binding
T1 construct: expressed in transfected cells; some KO cells re-transfected with Galphaq or Galpha11), receptor-enriched membranes
T1 sequence (P32238 1-428 Y140A): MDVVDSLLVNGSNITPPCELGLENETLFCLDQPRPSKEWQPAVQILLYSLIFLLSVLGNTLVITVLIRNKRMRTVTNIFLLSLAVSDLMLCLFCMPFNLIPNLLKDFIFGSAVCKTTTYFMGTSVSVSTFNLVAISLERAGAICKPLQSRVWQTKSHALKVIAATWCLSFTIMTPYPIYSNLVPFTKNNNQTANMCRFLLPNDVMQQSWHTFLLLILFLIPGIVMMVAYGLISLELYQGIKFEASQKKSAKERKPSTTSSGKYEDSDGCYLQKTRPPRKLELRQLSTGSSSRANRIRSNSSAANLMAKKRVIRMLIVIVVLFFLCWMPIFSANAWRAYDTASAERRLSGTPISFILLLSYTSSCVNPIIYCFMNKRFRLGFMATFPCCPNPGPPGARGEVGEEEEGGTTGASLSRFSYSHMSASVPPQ
Method: (§1) Cells were grown either in Ham-F12 medium supplemented with 5% Fetal Clone II or DMEM supplemented with 10% Fetal Clone II with 1% penicillin-streptomycin, 4 mM glutamine mixture in a humidified atmosphere containing 5% CO2 at 37°C.
(§2) This was done in the absence or presence of the non-hydrolyzable GTP analogue, GppNHp, at 10 μM concentration.

[2] = molecular target: T2, CCK1R(sterol 7M) (Homo sapiens, UniProt P32238, F130L/G141S/I216L/I223V/L219F/M226A/S136A); assay: fluorescence polarization kinetic assay, CCK1R(sterol 7M); type: binding
T2 construct: expressed in transfected cells
T2 sequence (P32238 1-428 F130L/S136A/G141S/I216L/L219F/I223V/M226A): T1 sequence (P32238 1-428 Y140A) with F130L, S136A, A140Y, G141S, I216L, L219F, I223V, M226A
Method: as §1, §2

[3] = molecular target: T3, CCK2R WT (Homo sapiens, UniProt P32239); assay: fluorescence polarization kinetic assay, CCK2R WT; type: binding
T3 construct: expressed in transfected cells; some KO cells re-transfected with Galphaq or Galpha11), receptor-enriched membranes
T3 sequence (P32239 1-447): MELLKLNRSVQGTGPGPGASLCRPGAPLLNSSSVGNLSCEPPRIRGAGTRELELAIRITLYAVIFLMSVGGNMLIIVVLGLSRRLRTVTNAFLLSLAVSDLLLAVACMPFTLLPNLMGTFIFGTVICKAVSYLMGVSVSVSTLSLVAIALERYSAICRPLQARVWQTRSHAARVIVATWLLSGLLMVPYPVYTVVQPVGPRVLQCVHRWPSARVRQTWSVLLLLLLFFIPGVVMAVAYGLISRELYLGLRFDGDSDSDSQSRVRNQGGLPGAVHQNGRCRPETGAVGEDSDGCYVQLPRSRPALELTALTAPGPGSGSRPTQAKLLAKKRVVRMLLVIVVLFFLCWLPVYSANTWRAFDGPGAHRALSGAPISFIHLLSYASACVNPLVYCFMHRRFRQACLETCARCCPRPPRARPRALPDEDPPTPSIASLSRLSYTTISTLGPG
Method: as §1, §2

[4] = molecular target: T4, CCK2R(sterol 7M) (Homo sapiens, UniProt P32239, A149S/A235M/F228L/L143F/L225I/S154G/V232I); assay: fluorescence polarization kinetic assay, CCK2R(sterol 7M); type: binding; settings: vs CCK2R
T4 construct: expressed in transfected cells
T4 sequence (P32239 1-447 L143F/A149S/S154G/L225I/F228L/V232I/A235M): T3 sequence (P32239 1-447) with L143F, A149S, S154G, L225I, F228L, V232I, A235M
Method: as §1, §2

[5] = molecular target: T5, SRD15-CCK1R cells (Homo sapiens, UniProt P32238); assay: fluorescence polarization kinetic assay, SRD15-CCK1R cells; type: binding; settings: vs WT CCK1R
T5 construct: expressed in transfected cells; host or cells: SRD15 cells (genetically modified CHO cells with elevated membrane cholesterol)
T5 sequence (P32238 1-428): T1 sequence (P32238 1-428 Y140A) with A140Y
Method: as §1, §2

[6] = tested on: CCK1R(Y140A); assay: photoaffinity labeling, CCK1R(Y140A); type: binding, human; settings: CNBr cleavage, 10% NuPAGE gel
Method: (§3) After incubation, contents were transferred to a siliconized glass tube and exposed to UV irradiation for 30 min at 4°C with 3,500-Å lamps in a Rayonet photochemical reactor (Southern New England Ultraviolet, Hamden, Connecticut). After photolysis, membrane suspensions were centrifuged at 25,000×g for 5 min and washed twice with ice-cold medium and then resuspended in 30 μl of SDS sample buffer prior to separation on 10% SDS-polyacrylamide gels. Gels were dried and radiolabeled bands were visualized by autoradiography. The apparent molecular weight of radiolabeled receptor fragments was determined from the mobility of Prosieve color protein standards (Cambrex, Rockland, Maine). Receptor radiolabeled bands were excised from the polyacrylamide gel, eluted, and lyophilized, then precipitated with ethanol. Radiochemically pure receptor suspension was cleaved with 2.5 mg of CNBr in 70% formic acid, as described previously. The cleaved receptor products were washed, dried, and resolve in 10% NuPAGE gel with MES running buffer (Invitrogen, Carlsbad, California). The labeled products were identified by autoradiography.

[7] = tested on: CCK1R(sterol 7M); assay: photoaffinity labeling, CCK1R(sterol 7M); type: binding, human; settings: CNBr cleavage, 10% NuPAGE gel
Method: as §3

[8] = tested on: WT CCK1R; settings: large glycosylated CNBr fragment; ref [28],[31]; cited from earlier work
[9] = tested on: CCK2R; settings: CNBr fragment; ref [28]; cited from earlier work

Molecule	off rate, Gq or G11 transfected ([1]; Gq/11 KO cells)	rate of CCK dissociation (off rate) ([1]; vs WT CCK1R)	kinetics in Gq/11 KO cells ([2]; absence of Gq/11 proteins)	off rate ([2]; vs CCK1R and CCK1R(Y140A))	ligand dissociation rate, Gq or G11 reintroduced ([3]; Gq/11 KO cells)	rate of CCK dissociation (off rate) ([3]; vs WT CCK1R)	ligand dissociation [4]	rate of CCK dissociation (off rate) [5]	photoaffinity labeling pattern [6]	photoaffinity labeling pattern [7]	site of covalent labeling [8]	site of covalent labeling [9]
CCCC[C@H](NC(=O)[C@H](Cc1ccc(OS(=O)(=O)O)cc1)NC(=O)[C@H](CC(=O)O)NC(=O)CNC(=O)c1ccc(-c2c3ccc(=N)c(S(=O)(=O)O)c-3oc3c(S(=O)(=O)O)c(N)ccc23)c(C(=O)O)c1)C(=O)NCC(=O)N[C@@H](Cc1c[nH]c2ccccc12)C(=O)N[C@@H](CCCC)C(=O)N[C@@H](CC(=O)O)C(=O)N[C@@H](Cc1ccccc1)C(N)=O [alexa^488-Gly-[(Nle^28,31)CCK-26-33]]	transfection of Gq, but not G11, reversed the higher off rate	significantly slower	not altered by absence of Gq/11 proteins	intermediate between that of CCK1R and CCK1R(Y140A)	reintroduction of either Gq or G11 reversed the increased ligand dissociation rate	slower at WT CCK2R relative to WT CCK1R	significantly faster ligand dissociation than CCK2R	significantly slower	–	–	–	–
(^125I-des-amino-Tyr)-Gly-[(Nle^28,31)CCK(26–32)]-Bpa^33	–	–	–	–	–	–	–	–	labeling of a much smaller and non-glycosylated fragment of the receptor	the same as previously demonstrated for WT CCK1R	Trp39	Thr119
